# Assay results as given in patent US5098933A, “Pharmaceutically useful Michael addition products of unsaturated aldehydes and ketones and ascorbic acid” (Theracel Corporation, priority 1990, dated 1992).
# “And” between values parts separate entries of the source, which are not always exact repeats. Equal entries are not always repeated. “Also recorded” adds a separate entry of the source.
# Legend:
# [1] = test system: CD-1 mice; test: Immunotoxicity--Multi-dose: survival, weight, organ and histopathology assessment; assay type: in vivo; conditions: for Organ weight, Kidney / Organ weight, Liver / Organ weight, Lung / Organ weight, Spleen / Organ weight, Tail: individual animals A, B
# Experimental: The immunotoxicological potential of KCPBL was evaluated in this experiment in which the study drug was administered to CD-1 mice for fourteen days (100 or 1000 mg/kg/day), either perorally (by gavage) or intravenously (tail vein). On the fifteenth day, the mice were weighed and sacrificed. The spleen, lungs, liver, kidneys and thymus were removed from each animal, fixed in formalin and histopathologically evaluated. In addition, a differential white blood cell count was obtained for a peripheral blood sample as well as the following tests performed: spleen cell counts (performed with Coulter Counter) and lymphocyte stimulation assays using PHA, CON-A and PWM techniques.
# CD-1 mice were obtained from Charles Rivers Laboratories. The mice were quarantined for at least one week in a separate holding room prior to use in this experiment. Five mice per treatment were used. The mice were housed in a Thoren positive pressure laminar flow Maximizer caging system with each case controlled for water and air flow. The mouse rooms are maintained on a 12-hour light/dark cycle at a constant temperature of 76° F.
# KCPBL containing approximately 50:50 ratio of the two epimers as determined by HPLC and optical rotation analysis was used in this study. An amount of drug was calculated to deliver the equivalent of 100 or 1000 mg/kg, either by the oral or intravenous route. The average weight of the mice was 29.5 grams.
# […] Mice were administered KCPBL daily for a total of fourteen days via the oral (0.2 ml of a 147.5 mg/ml solution or a 29.5 mg/ml solution by gavage) and intravenous route (0.2 ml of 147.5 mg/ml solution or a 29.5 mg/ml solution by tail vein) to achieve a dose of 100 or 1000 mg/kg, respectively. The test dose was prepared fresh daily and dissolved in sterile non-pyrogenic saline. On the fifteenth day the mice were weighed, sacrificed, and the spleens, lungs, livers, kidneys and thymuses removed. These organs were weighed and, except for the spleens, the formalin-fixed organs were analyzed by a veterinary pathologist. Only two randomly-selected sets of animal organs per treatment group were histopathologically evaluated since the remaining three animals were used to isolate splenic lymphocytes for use in cellular immunoassays.
# A leukocyte differential was obtained on peripheral blood samples and spleen cell counts (performed with Coulter Counter), and an IL-2 induction assessment as well as standard lymphocyte stimulation assays using PHA, CON-A and PWM conducted.
# Survival was assessed through the fifteenth day. All the surviving mice were sacrificed on the fifteenth day, predetermined organs removed, place in formalin, and subjected to for histopathologic examination by a veterinary pathologist.
# The individual spleens of three mice from control and test groups were processed to isolate lymphocytes and the protocols for lymphocyte blastogenesis, IL-2 induction and assay were performed. The remaining two mice in each group were sacrificed and their lungs, liver, kidney, and spleen were fixed in formalin and sent to AnMed Biosafe for histopathologic examination.
# [2] = Tissue biodistribution of 3H-KCPBL in mice; assay type: in vivo; conditions: for Biodistribution, Bone / Biodistribution, Brain / Biodistribution, Heart / Biodistribution, Kidney / Biodistribution, Large Intestine / Biodistribution, Liver / Biodistribution, Lung / Biodistribution, Muscle / Biodistribution, Small Intestine / Biodistribution, Spleen / Biodistribution, Stomach: 100 mg/kg
# Experimental: The objectives of these tests were to evaluate the pharmacokinetics of radiolabeled KCPBL when administered either perorally or intravenously to mice.
# 3H-KCPBL was prepared from the pure drug substance KCPBL by an exchange procedure using high specific activity tritiated water. The product was purified by reverse phase high performance liquid chromatography and then freeze-dried. Analysis was carried out on ^3 H-KCPBL reconstituted in water. Specific activity was not less than 185 GBg/mmol or 5 Ci/mmol and the molecular weight of the product is 258. HPLC analysis for purity was performed using a Zorbax C8 column (25 cm×4.6) eluting with water: acetonitrile (930:70).
# In the mouse studies, 3H-KCPBL was dissolved in sterile pyrogen-free saline containing […] of non-radiolabeled KCPBL. The final concentration of the test article in an injection volume of 0.1 ml was 66.6 mcCi. One tenth ml was administered intravenously for plasma level and tissue biodistribution studies. Peroral dosages were prepared in a manner consistent with this approach.
# Tissue samples were collected and assayed as described above. The tissues evaluated for KCPBL content at four and at 24 hours after test article administration were: heart, lung, kidney, liver spleen, muscle, bond, stomach, small intestine, large intestine and brain.
# [3] = group 2 (1000 mg/kg P.O.), 1000 mg/kg
# [4] = group 3 (1000 mg/kg IV), 1000 mg/kg
# [5] = group 5 (100 mg/kg IV), 100 mg/kg
compound,measurement,setting,value
O=C1CCC(C2(O)C(=O)OC3C(O)COC32O)C1 (stereo not drawn) [KCPBL],PMV:Mono ratio,[1]; 100 mg/kg IV (group 5),10/90
same,PMV:Mono ratio,[1]; 1000 mg/kg IV (group 3),11/89
same,PMV:Mono ratio,[1]; 1000 mg/kg P.O. (group 2),21/79
same,generalized toxicity / immunotoxic effect,"[1]; 100 or 1000 mg/kg, either route",None of the mice showed evidence of generalized toxicity; also recorded: no evidence of a immunotoxic effect
same,weight loss,"[1]; 100 or 1000 mg/kg/day, 14 days, i.v. or p.o.",No clinically significant weight loss
same,survival / deaths,[1]; 14 days dosing,"Except for treatment group 4 (KCPBL 100 mg/kg perorally), all animals survived to the conclusion of the trial; also recorded: In group 4, two animals were found dead on day 4 and another animal dead on day 10"
same,"Organ weight, Kidney",[1]; [3],271.7 mg and 269.8 mg
same,"Organ weight, Liver",[1]; [3],1710 mg and 1780 mg
same,"Organ weight, Lung",[1]; [3],192.5 mg and 175.8 mg
same,"Organ weight, Spleen",[1]; [3],102.6 mg and 103.7 mg
same,"Organ weight, Tail",[1]; [3],236.2 mg and 229.1 mg
same,"Organ weight, Kidney",[1]; [4],287.1 mg and 225.3 mg
same,"Organ weight, Liver",[1]; [4],1760 mg and 1310 mg
same,"Organ weight, Lung",[1]; [4],209.1 mg and 177.1 mg
same,"Organ weight, Spleen",[1]; [4],110.8 mg and 75.6 mg
same,"Organ weight, Tail",[1]; [4],235.8 mg and 239.6 mg
same,"Organ weight, Kidney",[1]; [5],235.4 mg and 377.9 mg
same,"Organ weight, Liver",[1]; [5],1570 mg and 2350 mg
same,"Organ weight, Lung",[1]; [5],177.9 mg and 192.3 mg
same,"Organ weight, Spleen",[1]; [5],88.7 mg and 104.2 mg
same,"Organ weight, Tail",[1]; [5],215.1 mg and 248.2 mg
same,"Histopathology (lung, liver, kidney, spleen, thymus, tail)","[1]; groups 1, 2, 3, and 5",all tissues examined were considered to be within the normal range
same,WBC differentials,"[1]; peripheral blood, granulocyte and mononuclear cells",within normal limits
same,"organ systems (weights, histopathological assessments)",[1]; vs sham-injected controls,within normal weight limits
same,tissues with highest drug levels,"[2]; 4 h, intravenous","liver, gastrointestinal tract, and brain"
same,tissues with highest drug levels,"[2]; 4 h, peroral",principally found in the kidneys and the gastrointestinal tract
same,tissues with highest drug levels,"[2]; 24 h, intravenous",muscle and brain demonstrated the highest levels
same,tissues with highest drug levels,"[2]; 24 h, peroral",the highest drug levels were found in muscle and brain
same,"Biodistribution, Bone","[2]; intravenous, 4 hour",12.77 ± 3.96 mcg/gm
same,"Biodistribution, Brain","[2]; intravenous, 4 hour",38.60 ± 16.90 mcg/gm
same,"Biodistribution, Heart","[2]; intravenous, 4 hour",10.45 ± 3.50 mcg/gm
same,"Biodistribution, Kidney","[2]; intravenous, 4 hour",11.72 ± 1.34 mcg/gm
same,"Biodistribution, Large Intestine","[2]; intravenous, 4 hour",65.57 ± 14.86 mcg/gm
same,"Biodistribution, Liver","[2]; intravenous, 4 hour",21.20 ± 4.78 mcg/gm
same,"Biodistribution, Lung","[2]; intravenous, 4 hour",2.60 ± 2.20 mcg/gm
same,"Biodistribution, Muscle","[2]; intravenous, 4 hour",31.97 ± 6.09 mcg/gm
same,"Biodistribution, Small Intestine","[2]; intravenous, 4 hour",58.50 ± 18.68 mcg/gm
same,"Biodistribution, Spleen","[2]; intravenous, 4 hour",0.95 ± 0.36 mcg/gm
same,"Biodistribution, Stomach","[2]; intravenous, 4 hour",23.79 ± 5.96 mcg/gm
same,"Biodistribution, Bone","[2]; intravenous, 24 hour",4.53 ± 0.86 mcg/gm
same,"Biodistribution, Brain","[2]; intravenous, 24 hour",34.80 ± 20.5 mcg/gm
same,"Biodistribution, Heart","[2]; intravenous, 24 hour",2.85 ± 1.23 mcg/gm
same,"Biodistribution, Kidney","[2]; intravenous, 24 hour",5.35 ± 3.66 mcg/gm
same,"Biodistribution, Large Intestine","[2]; intravenous, 24 hour",13.67 ± 9.3 mcg/gm
same,"Biodistribution, Lung","[2]; intravenous, 24 hour",1.32 ± 0.46 mcg/gm
same,"Biodistribution, Muscle","[2]; intravenous, 24 hour",120.90 ± 154.0 mcg/gm
same,"Biodistribution, Small Intestine","[2]; intravenous, 24 hour",9.62 ± 6.4 mcg/gm
same,"Biodistribution, Spleen","[2]; intravenous, 24 hour",0.71 ± 0.23 mcg/gm
same,"Biodistribution, Stomach","[2]; intravenous, 24 hour",10.36 ± 5.8 mcg/gm
same,"Biodistribution, Liver","[2]; intravenous, 24 hour, SD: data not available",25.7 mcg/gm
same,"Biodistribution, Bone","[2]; peroral, 4 hour",15.02 ± 13.6 mcg/gm
same,"Biodistribution, Brain","[2]; peroral, 4 hour",35.22 ± 1.64 mcg/gm
same,"Biodistribution, Heart","[2]; peroral, 4 hour",13.64 ± 4.98 mcg/gm
same,"Biodistribution, Kidney","[2]; peroral, 4 hour",63.57 ± 74.0 mcg/gm
same,"Biodistribution, Large Intestine","[2]; peroral, 4 hour",135.9 ± 32.5 mcg/gm
same,"Biodistribution, Liver","[2]; peroral, 4 hour",38.03 ± 5.0 mcg/gm
same,"Biodistribution, Lung","[2]; peroral, 4 hour",2.72 ± 0.38 mcg/gm
same,"Biodistribution, Muscle","[2]; peroral, 4 hour",40.81 ± 3.37 mcg/gm
same,"Biodistribution, Small Intestine","[2]; peroral, 4 hour",217.50 ± 267.6 mcg/gm
same,"Biodistribution, Spleen","[2]; peroral, 4 hour",1.73 ± 0.29 mcg/gm
same,"Biodistribution, Stomach","[2]; peroral, 4 hour",110.00 ± 118.0 mcg/gm
same,"Biodistribution, Bone","[2]; peroral, 24 hour",10.30 ± 4.72 mcg/gm
same,"Biodistribution, Brain","[2]; peroral, 24 hour",47.30 ± 33.0 mcg/gm
same,"Biodistribution, Heart","[2]; peroral, 24 hour",5.13 ± 3.37 mcg/gm
same,"Biodistribution, Kidney","[2]; peroral, 24 hour",10.28 ± 5.58 mcg/gm
same,"Biodistribution, Large Intestine","[2]; peroral, 24 hour",21.42 ± 4.39 mcg/gm
same,"Biodistribution, Liver","[2]; peroral, 24 hour",11.84 ± 9.58 mcg/gm
same,"Biodistribution, Lung","[2]; peroral, 24 hour",3.73 ± 3.49 mcg/gm
same,"Biodistribution, Muscle","[2]; peroral, 24 hour",188.5 ± 124.0 mcg/gm
same,"Biodistribution, Small Intestine","[2]; peroral, 24 hour",24.45 ± 5.3 mcg/gm
same,"Biodistribution, Spleen","[2]; peroral, 24 hour",1.71 ± 0.16 mcg/gm
same,"Biodistribution, Stomach","[2]; peroral, 24 hour",25.72 ± 15.0 mcg/gm
